These results are taken from US11780826B2 (Amgen Inc., priority 2017, dated 2023).

In the experiment the test system is Bovine cardiac myofibrils. Description: In vitro model of dose-dependent myofibril ATPase modulation (AC1.4, pyruvate kinase/lactate dehydrogenase-coupled ATPase assay at pCa25). The class given is biochemical. As to conditions: concentration at which ATPase activity was 1.4-fold higher than the bottom of the dose curve, mean of a minimum of two independent tests. The gist of the method:
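Bovine cardiac myofibrils, detergent-treated; 0.25-1.0 mg/ml. Buffer: K-PIPES 12 mM, MgCl2 2 mM, DTT 1 mM, BSA 0.1 mg/ml, pH 6.80, 22° C; Ca2+ set by EGTA/CaCl2. ATP 1 mM, NADH/PEP-coupled, A340. 4-parameter fit; n≥2.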
As to `N#CC1CN(S(=O)(=O)c2cccc(C(=O)N3CCC[C@@H]3C(=O)N[C@@H](CO)c3ccc(C(F)(F)F)cc3)c2)C1` [Example 188, 1-(3-((3-cyano-1-azetidinyl)sulfonyl)benzoyl)-N-((1R)-2-hydroxy-1-(4-(trifluoromethyl)phenyl)ethyl)-D-prolinamide], the AC1.4 is 0.3496 µM.

In turn, `O=C(N[C@@H](c1cc(F)c(C(F)(F)F)cc1F)C1CC1)[C@H]1C[C@H]2C[C@H]2N1C(=O)c1cccc(C(F)(F)F)n1` [Example 615, (1R,3R,5R)-N-((R)-cyclopropyl(2,5-difluoro-4-(trifluoromethyl)phenyl)methyl)-2-((6-(trifluoromethyl)-2-pyridinyl)carbonyl)-2-azabicyclo[3.1.0]hexane-3-carboxamide] yielded an AC1.4 of 3.8905 µM.

As to `Cc1ccc(CNC(=O)[C@H]2CCCN2C(=O)[C@H]2CCCN(S(=O)(=O)N3CC(C#N)C3)C2)cc1C(F)(F)F` [Example 544, 1-(((3S)-1-((3-cyano-1-azetidinyl)sulfonyl)-3-piperidinyl)carbonyl)-N-(4-methyl-3-(trifluoromethyl)benzyl)-D-prolinamide], the AC1.4 stood at 2.8175 µM.

As to `N#CC1CN(S(=O)(=O)N2CCC[C@H](C(=O)N3CCC[C@@H]3C(=O)N[C@@H](c3ccc(C(F)(F)F)cc3)C(F)(F)F)C2)C1` [Example 198, 1-(((3S)-1-((3-cyano-1-azetidinyl)sulfonyl)-3-piperidinyl)carbonyl)-N-((1S)-2,2,2-trifluoro-1-(4-(trifluoromethyl)phenyl)ethyl)-D-prolinamide], the AC1.4 is 0.4034 µM.

As for `CCS(=O)(=O)c1cccc(C(=O)N2[C@@H](C(=O)N[C@@H](c3cc(F)c(Cl)cc3F)[C@H](C)O)C[C@H]3C[C@H]32)c1` [Example 395, (1R,3R,5R)-N-((1S,2S)-1-(4-chloro-2,5-difluorophenyl)-2-hydroxypropyl)-2-(3-(ethylsulfonyl)benzoyl)-2-azabicyclo[3.1.0]hexane-3-carboxamide], the AC1.4 turned out to be 1.361 µM.

Compound `O=C(N[C@@H](c1cc(F)c(Cl)cc1F)C1CC1)[C@H]1C[C@H]2C[C@H]2N1C(=O)c1cccc(C(F)(F)F)n1` [Example 667, (1R,3R,5R)-N-((R)-(4-chloro-2,5-difluorophenyl)(cyclopropyl)methyl)-2-((6-(trifluoromethyl)-2-pyridinyl)carbonyl)-2-azabicyclo[3.1.0]hexane-3-carboxamide] registered an AC1.4 of 4.708 µM.

The compound `CC(=O)N1CC(F)(c2cccc(C(=O)N3CCC[C@@H]3C(=O)N[C@@H](c3ccc(C(F)(F)F)cc3F)C3CC3)c2)C1` [Example 796, 1-(3-(l-acetyl-3-fluoro-3-azetidinyl)benzoyl)-N-((R)-cyclopropyl(2-fluoro-4-(trifluoromethyl)phenyl)methyl)-D-prolinamide] showed an AC1.4 of 9.426 µM.

On to `N#CC1CN(S(=O)(=O)N2CCC[C@H](C(=O)N3CCC[C@@H]3C(=O)N[C@@H](c3cc(F)c(Cl)cc3F)C3CNC3)C2)C1` (single isomer, unassigned) [Example 558], for which the AC1.4 was 2.928 µM.

Turning to `COc1ccc(S(C)(=O)=O)cc1C(=O)N1CCC[C@@H]1C(=O)N[C@@H](c1ccc(C(F)(F)F)cc1F)C1CC1` [Example 602, N-((R)-cyclopropyl(2-fluoro-4-(trifluoromethyl)phenyl)methyl)-1-(2-methoxy-5-(methylsulfonyl)benzoyl)-D-prolinamide], the AC1.4 is 3.4595 µM.

Compound `COCC(NC(=O)[C@H]1CCCN1C(=O)[C@H]1CCCN(S(=O)(=O)N2CC(C#N)C2)C1)c1ccc(Cl)cc1` (stereo partly drawn) [Example 97, N-(-1-(4-chlorophenyl)-2-methoxyethyl)-1-(((3S)-1-((3-cyano-1-azetidinyl)sulfonyl)-3-piperidinyl)carbonyl)-D-prolinamide] returned an AC1.4 of 0.1466 µM.

Take `CN(C)c1cccc(C(=O)N2CCC[C@@H]2C(=O)N[C@@H](c2ccc(C(F)(F)F)cc2F)C2CC2)c1` [Example 584, N-((R)-cyclopropyl(2-fluoro-4-(trifluoromethyl)phenyl)methyl)-1-(3-(dimethylamino)benzoyl)-D-prolinamide]: the AC1.4 came out at 3.397 µM.

On to `CS(=O)(=O)c1cccc(C(=O)N2C[C@@H](F)C[C@@H]2C(=O)N[C@@H](c2cc(F)c(C(F)(F)F)cc2F)C2CC2)c1` [Example 173, (4S)-N-((R)-cyclopropyl(2,5-difluoro-4-(trifluoromethyl)phenyl)methyl)-4-fluoro-1-(3-(methylsulfonyl)benzoyl)-D-prolinamide], for which the AC1.4 was determined as 0.3001 µM.

Turning to `Cc1cc(C(C)NC(=O)[C@H]2CCCN2C(=O)[C@H]2CCCN(S(=O)(=O)N3CC(C#N)C3)C2)ccc1F` (stereo partly drawn) [Example 592, (2R)-1-((S)-1-((3-cyanoazetidin-1-yl)sulfonyl)piperidine-3-carbonyl)-N-(1-(4-fluoro-3-methylphenyl)ethyl)pyrrolidine-2-carboxamide], the AC1.4 turned out to be 3.477 µM.

`COc1cc(F)cc(CNC(=O)[C@H]2CCCN2C(=O)[C@H]2CCCN(S(=O)(=O)N3CC(C#N)C3)C2)c1` [Example 681, 1-(((3S)-1-((3-cyano-1-azetidinyl)sulfonyl)-3-piperidinyl)carbonyl)-N-(3-fluoro-5-methoxybenzyl)-D-prolinamide] returned an AC1.4 of 5.0425 µM.

`Cc1ccnc(C(=O)N2[C@@H](C(=O)N[C@@H](c3cc(F)c(Cl)cc3F)C3COC3)C[C@H]3C[C@H]32)c1` [Example 600, (1R,3R,5R)-N-((R)-(4-chloro-2,5-difluorophenyl)(3-oxetanyl)methyl)-2-((4-methyl-2-pyridinyl)carbonyl)-2-azabicyclo[3.1.0]hexane-3-carboxamide] returned an AC1.4 of 3.6113 µM.

In turn, `N#CC1CN(S(=O)(=O)c2cccc(C(=O)N3CCCCCC3C(=O)NCc3ccc(C(F)(F)F)cc3)c2)C1` (centres unmarked) [Example 96, (2)-1-((3-((3-cyano-1-azetidinyl)sulfonyl)phenyl)carbonyl)-N-(4-(trifluoromethyl)benzyl)-2-azepanecarboxamide] gave an AC1.4 of 0.1452 µM.

On to `C[C@@H](NC(=O)[C@H]1CCCN1C(=O)[C@H]1CCCN(S(=O)(=O)N2CC(C#N)C2)C1)c1cccc(C(F)(F)F)c1` [Example 465, 1-(((3S)-1-((3-cyano-1-azetidinyl)sulfonyl)-3-piperidinyl)carbonyl)-N-((1R)-1-(3-(trifluoromethyl)phenyl)ethyl)-D-prolinamide], for which the AC1.4 worked out at 1.9455 µM.

As for `O=C(N[C@@H](c1cc(F)c(Cl)cc1F)C1CC1)[C@H]1C[C@H]2C[C@H]2N1C(=O)c1cccc(S(=O)(=O)CCO)c1` [Example 112, (1R,3R,5R)-N-((R)-(4-chloro-2,5-difluorophenyl)(cyclopropyl)methyl)-2-(3-((2-hydroxyethyl)sulfonyl)benzoyl)-2-azabicyclo[3.1.0]hexane-3-carboxamide], the AC1.4 turned out to be 0.1762 µM.

In the case of `CS(=O)(=O)c1cccc(C(=O)N2C[C@@H](F)C[C@@H]2C(=O)N[C@@H](c2ccc(Cl)c(F)c2)C2COC2)c1` [Example 365, (4S)-N-((R)-(4-chloro-3-fluorophenyl)(3-oxetanyl)methyl)-4-fluoro-1-(3-(methylsulfonyl)benzoyl)-D-prolinamide], the AC1.4 came out at 1.139 µM.

`CS(=O)(=O)c1cccc(C(=O)N2CCC[C@@H]2C(=O)N[C@@H](c2ccc(Cl)c(F)c2)C2CC2)c1` [Example 426, N-((R)-(4-chloro-3-fluorophenyl)(cyclopropyl)methyl)-1-(3-(methylsulfonyl)benzoyl)-D-prolinamide] returned an AC1.4 of 1.4595 µM.

Compound `N#CC1CN(S(=O)(=O)N2CC(C(=O)N3CCC[C@@H]3C(=O)NCc3ccc(C(F)(F)F)cc3)C3CC32)C1` (stereo partly drawn) [Example 503, (2R)-1-(2-((3-cyanoazetidin-1-yl)sulfonyl)-2-azabicyclo[3.1.0]hexane-4-carbonyl)-N-(4-(trifluoromethyl)benzyl)pyrrolidine-2-carboxamide] gave an AC1.4 of 2.3565 µM.

Consider `N#CC1CN(S(=O)(=O)N2CCC[C@@H](C(=O)N3CCC[C@@H]3C(=O)NCc3ccc(C(F)(F)F)cc3F)C2)C1` [Example 539, 1-(((3R)-1-((3-cyano-1-azetidinyl)sulfonyl)-3-piperidinyl)carbonyl)-N-(2-fluoro-4-(trifluoromethyl)benzyl)-D-prolinamide], for which the AC1.4 came out at 2.753 µM.

On to `O=C(N[C@@H](c1cc(F)c(Cl)cc1F)C1CC1)[C@H]1C[C@H]2C[C@H]2N1C(=O)c1cncc(S(=O)(=O)C2CC2)c1` [Example 163, (1R,3R,5R)-N-((R)-(4-chloro-2,5-difluorophenyl)(cyclopropyl)methyl)-2-((5-(cyclopropylsulfonyl)-3-pyridinyl)carbonyl)-2-azabicyclo[3.1.0]hexane-3-carboxamide], for which the AC1.4 was determined as 0.2773 µM.

`NS(=O)(=O)c1cccc(C(=O)N2C[C@@H](F)C[C@@H]2C(=O)N[C@@H](c2cc(F)c(Cl)cc2F)C2CC2)c1` [Example 280, (4S)-N-((R)-(4-chloro-2,5-difluorophenyl)(cyclopropyl)methyl)-4-fluoro-1-(3-sulfamoylbenzoyl)-D-prolinamide]: the AC1.4 worked out at 0.713 µM.

`CCCCCOC1CN(S(=O)(=O)N2CCC[C@H](C(=O)N3CCC[C@@H]3C(=O)NCc3ccc(C(F)(F)F)cc3)C2)C1` [Example 536, 1-(((3S)-1-((3-(pentyloxy)-1-azetidinyl)sulfonyl)-3-piperidinyl)carbonyl)-N-(4-(trifluoromethyl)benzyl)-D-prolinamide]: the AC1.4 stood at 2.696 µM.

Take `CS(=O)(=O)c1cccc(C(=O)N2CCOC[C@@H]2C(=O)N[C@@H](c2cc(F)c(Cl)cc2F)C2CC2)c1` [Example 328, (3R)-N-((R)-(4-chloro-2,5-difluorophenyl)(cyclopropyl)methyl)-4-(3-(methylsulfonyl)benzoyl)-3-morpholinecarboxamide]: the AC1.4 was determined as 0.8776 µM.
